Laboratory results as given in patent publication US20090221624A1, “4-AMINOQUINOLINE COMPOUNDS FOR TREATING VIRUS-RELATED CONDITIONS” (priority 2005, published 2009).
pEC50: −log10 of the molar value.

Key:
[1] = system: WNV (WN-hRuPac cells); assay: WNV antiviral activity, WN-hRuPac cells, Renilla luciferase; type: cell-based, West Nile virus; details: for pEC50 / inhibition at 25 µM: West Nile virus; for pEC50: Secondary Data, WNV, read-out: WNV EC50; for inhibition at 25 µM: primary screening, 25 μM final concentration, 24 hours, percent inhibition of viral replication, read-out: WNV Inh; for WNV TI: therapeutic index CC50/EC50, WNV
[2] = system: SINV (SR19-F-luc cells); assay: SINV antiviral activity, SR19-F-luc cells, Firefly luciferase; type: cell-based; details: Sindbis virus; for inhibition at 25 µM: primary screening, 25 μM final concentration, 24 hours, percent inhibition of viral replication, read-out: SINV Inh; for pEC50: secondary screening, SR19-F-luc cells
[3] = in vitro
[4] = system: RSV minigenome; assay: RSV minigenome-dependent β-galactosidase expression assay (RSV β-Gal); type: cell-based, respiratory syncytial virus; details: for pEC50 / inhibition at 25 µM: human respiratory syncytial virus; for pEC50: Secondary Data, RSV, read-out: RSV EC50; for inhibition at 25 µM: primary screening, 25 μM final concentration, 24 hours, percent inhibition of viral replication, read-out: RSV Inh; for RSV TI: therapeutic index CC50/EC50, RSV
[5] = system: YFV (YF-hRuPac cells); assay: microbe, parasite or virus in culture; type: cell-based, yellow fever virus; details: for inhibition at 25 µM / pEC50: Yellow fever virus; for inhibition at 25 µM: 24 h, read-out: YFV Inh; for pEC50: read-out: YFV EC50
[6] = system: HCV replicon (Clone A cells, Huh7, subgenomic hepatits C virus RNA); assay: HCV Neo screening assay (HCV replicon, NPTII ELISA); type: cell-based, hepatitis C virus; details: for pEC50 / inhibition at 25 µM: Hepatitis C virus, Huh-7; for pEC50: Secondary Data, HCV; for inhibition at 25 µM: primary screening, 25 μM final concentration, 24 hours, percent inhibition of viral replication, read-out: HCV Inh; for HCV TI: therapeutic index CC50/EC50, HCV
[7] = system: DNG (D2-hRuPac cells); assay: DNG antiviral activity, D2-hRuPac cells, Renilla luciferase; type: cell-based, Dengue fever virus; details: Dengue virus, secondary screening
[8] = system: EBOV minigenome; assay: microbe, parasite or virus in culture; type: cell-based, Ebola virus; details: Zaire ebolavirus; for inhibition at 25 µM: 24 h, read-out: EBOV Inh; for pEC50: read-out: EBOV EC50

SMILES | inhibition at 25 µM [1] | inhibition at 25 µM [2] | pEC50 [2] | CC50 ([3]; DNG CC50) | CC50 ([3]; EBOV CC50) | CC50 ([3]; HCV CC50) | CC50 ([3]; RSV CC50) | CC50 ([3]; SINV CC50) | CC50 ([3]; WNV CC50) | CC50 ([3]; YFV CC50) | pEC50 [4] | inhibition at 25 µM [4] | RSV TI [4] | inhibition at 25 µM [5] | pEC50 [5] | pEC50 [6] | inhibition at 25 µM [6] | HCV TI [6] | pEC50 [7] | inhibition at 25 µM [8] | further results
CCOC(=O)c1cnc2ccc(OCC)cc2c1Nc1ccccc1CC [Compound 34] | 60.4% | 34% | ≤ 4.12 | 61.9 µM | 61.9 µM | 35.6 µM | 61.9 µM | 61.9 µM | 61.9 µM | 61.9 µM | 5.29 | 77.3% | 12.19 | 58.5% | 4.64 | 4.94 | 78.6% | 3.12 | ≤ 4.12 | 53.8% | pEC50 [1]: 4.41; WNV TI [1]: 1.58; YFV TI [5]: 2.69; pEC50 [8]: 4.12
CCOC(=O)c1cnc2c(ccc3ccccc32)c1NCc1ccco1 [Compound 37] | 87.8% | 10.3% | ≤ 4.12 | 41.6 µM | 41.6 µM | 56 µM | 41.6 µM | 41.6 µM | 41.6 µM | 41.6 µM | 5.86 | 58% | 30.12 | 94.4% | 5.56 | 4.89 | 72.9% | 4.31 | 4.59 | 15.7% | pEC50 [1]: 5.39; WNV TI [1]: 10.19; YFV TI [5]: 15.12; pEC50 [8]: 4.12
CCOC(=O)c1cnc2ccc(C)cc2c1Nc1ccc(N2CCOCC2)cc1 [Compound 38] | 36.5% | 43.2% | ≤ 4.12 | ≥ 75 µM | ≥ 75 µM | 19 µM | ≥ 75 µM | ≥ 75 µM | ≥ 75 µM | ≥ 75 µM | 5.30 | 98.2% | 14.85 | 70.8% | 4.41 | 5.02 | 88.4% | 2 | ≤ 4.12 | -36.4% | YFV TI [5]: 1.94; pEC50 [8]: 4.12
COC(=O)c1ccc(Nc2cc(C)nc3c(C)cccc23)cc1 [Compound 61] | 96.9% | 37.5% | 4.76 | 45.9 µM | 45.9 µM | 46.5 µM | 45.9 µM | 45.9 µM | 45.9 µM | 45.9 µM | 4.49 | 58.7% | 1.43 | 97.7% | 5.00 | 6.12 | 80.1% | 61.93 | 4.85 | 40.9% | pEC50 [1]: 4.65; WNV TI [1]: 2.06; YFV TI [5]: 4.54; pEC50 [8]: 4.15
Cc1cc(C)c2nc(C)cc(NCc3ccco3)c2c1 [Compound 54] | 84.4% | 47.8% | 4.42 | 50.2 µM | 50.2 µM | 23.9 µM | 50.2 µM | 50.2 µM | 50.2 µM | 50.2 µM | 5.24 | 87.9% | 8.66 | 91.1% | 5.38 | 4.59 | 101% | 0.92 | 4.66 | 38.4% | pEC50 [1]: 5.16; WNV TI [1]: 7.26; YFV TI [5]: 12.13; pEC50 [8]: 4.12
c1cncc(CNc2c3ccccc3nc3ccccc23)c1 [Compound 5] | 89.3% | 29.6% | 5.15 | 28.6 µM | 28.6 µM | 9.67 µM | 28.6 µM | 28.6 µM | 28.6 µM | 28.6 µM | 5.55 | 98.5% | 10.2 | 84.7% | 4.95 | 5.75 | 211% | 5.49 | 5.44 | 86% | pEC50 [1]: 5.15; WNV TI [1]: 3.99; YFV TI [5]: 2.57; pEC50 [8]: 4.82
COC(=O)c1ccc2nc(C)cc(Nc3cccc(O)c3)c2c1 [Compound 73] | 31.5% | 80.8% | 5.22 | 72.3 µM | 72.3 µM | 35.2 µM | 72.3 µM | 72.3 µM | 72.3 µM | 72.3 µM | 4.54 | 63.1% | 2.5 | 51.8% | 4.39 | 5.63 | 89.5% | 15.17 | 4.78 | 62.1% | pEC50 [1]: 4.59; WNV TI [1]: 2.8; YFV TI [5]: 1.79
CCOc1ccc2nc(C)cc(Nc3cc(Cl)ccc3OC)c2c1 [Compound 58] | 91.5% | 92.8% | 5.38 | 18.7 µM | 18.7 µM | 11.8 µM | 18.7 µM | 18.7 µM | 18.7 µM | 18.7 µM | 5.63 | 99.8% | 7.98 | 96.6% | 5.58 | 5.31 | 137% | 2.38 | 5.16 | 80.2% | pEC50 [1]: 5.42; WNV TI [1]: 4.91; YFV TI [5]: 7.04; pEC50 [8]: 5.31
Cc1cc(Nc2cccc(Cl)c2C)c2cccc(C)c2n1 [Compound 65] | 80.6% | 72.2% | ≤ 4.12 | ≥ 75 µM | ≥ 75 µM | 13 µM | ≥ 75 µM | ≥ 75 µM | ≥ 75 µM | ≥ 75 µM | 5.71 | 96.6% | 38.46 | 76.3% | ≤ 4.12 | 5.07 | 114% | 1.53 | ≤ 4.12 | 81.8% | pEC50 [1]: 5.24; WNV TI [1]: 13.11; pEC50 [8]: 4.31
Cc1ccc2nc3c(c(Nc4ccccc4)c2c1)CCC3 [Compound 27] | 60% | 70.6% | 5.73 | 50.7 µM | 50.7 µM | 24.2 µM | 50.7 µM | 50.7 µM | 50.7 µM | 50.7 µM | 5.22 | 92.2% | 8.45 | 70.2% | 4.93 | 4.85 | 113% | 1.73 | 4.42 | -4.87% | pEC50 [1]: 5.56; WNV TI [1]: 18.24; YFV TI [5]: 4.3; pEC50 [8]: 4.20
